From PubChem BioAssay AID1259426 (Fisher Drug Discovery Resource Center, 2018)
Activity calls are given as the source filed them.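 The calls were made as follows: active = EC50 under a set limit in control cells lacking the mosquito receptor, marking a fluorescence artifact; inactive = the rest.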

biological target: HEK293 Galpha15/GCaMP6s without NPYLR7, calcium fluorescence; experiment: nonspecific activation in parental Galpha15/GCaMP6s cells – cell-based, HEK293 lacking NPYLR7, counter-screen for mosquito NPYLR7 agonist project, dose response (AID 1259426);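 also: potency for a rise in fluorescence over baseline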

| Compound | EC50 |
| --- | --- |
| CCN(CC)CCNC(=O)c1c(C)[nH]c(/C=C2/C(=O)Nc3ccc(F)cc32)c1C | 11.3 µM |
| CCN(CC)c1ccc(/C=C2\SC(=S)N(CCS(=O)(=O)O)C2=O)cc1 | 0.039 µM |
| Cc1ccc2c(c1)CCCN2CC(=O)N(CCC(N)=O)c1ccccc1 | 16.8 µM |
| CCOc1ccc(C(=O)Nc2sc3c(c2-c2nc4ccccc4s2)CCN(C)C3)cc1 | > 20 µM (inactive) |
| O=C(CN1C(=O)SC(=Cc2ccc(N3CCCCCC3)o2)C1=O)N1CCCCCC1 | > 20 µM (inactive) |
| O=C1NC(=O)C2=Cc3ccc(O)cc3OC2(O)N1 (configuration not stated) | 0.247 µM |
| CN1C(=CC=C2C(=O)CC(C)(C)CC2=O)C(C)(C)c2ccccc21 | 13.1 µM |
| O=C(O)CN1C(=O)/C(=C/c2cc(Br)c(O)c(Br)c2)SC1=S | 0.289 µM |
| Clc1cccc2ccc(CN3CCn4cncc4C3)nc12 | 19.2 µM |
| COCCOc1ccc(NS(=O)(=O)c2cn(C)c(Cl)n2)cn1 | 7.28 µM |
| O=C(c1nccc2ccccc12)N1CCN(CC2CCCC2)CC1 | > 20 µM (inactive) |
| COc1cc(/C=C2\Oc3c(ccc4c3CN(CC3CCCO3)CO4)C2=O)cc(OC)c1OC (configuration not stated) | 9.34 µM |
| CC(C(=O)O)N1C(=O)/C(=C\c2ccc(O)cc2)SC1=S (configuration not stated) | 12.1 µM |
| Nc1ncnc2c1ncn2[C@@H]1O[C@H](CO)[C@@H](O)[C@H]1O | < 0.039 µM |
| COc1ccc(OC)c(CCNc2nc3cnc(-c4ccc5c(c4)OCO5)cc3n2C)c1 | > 20 µM (inactive) |
| Cc1cc(O)c(CN2CCCC2)c2c1C(=O)/C(=C/c1cc3ccccc3o1)O2 | > 20 µM (inactive) |
| CC1=CC(C)C(C(=O)O)C(C(=O)O)C1 (configuration not stated) | > 20 µM (inactive) |
| Cc1cc2nc3c(=O)[nH]c(=O)nc-3n(C[C@H](O)[C@H](O)[C@H](O)CO)c2cc1C | 0.508 µM |
| COCCCNCc1c(-c2ccc(F)cc2)noc1N1CCOCC1 | > 20 µM (inactive) |
| CCOC(=O)c1c(-c2ccccc2)csc1N=Cc1nc(-c2ccccc2)oc1O | > 20 µM (inactive) |
| O=[N+]([O-])c1ccc(Cl)c2nonc12 | 4.83 µM |
| O=C1OC(c2ccc(Cl)c([N+](=O)[O-])c2)=N/C1=C\c1cc2cc3c4c(c2oc1=O)CCCN4CCC3 | < 0.039 µM |
| Cn1c(/C(C#N)=C/c2ccc(N3CCOCC3)o2)nc2ccccc21 | > 20 µM (inactive) |
| CN(Cc1ccccc1)c1cc(Oc2cccc(Cl)c2)ncn1 | > 20 µM (inactive) |
| CC(C(=O)O)n1c(O)c(C=C2C=Nc3ccccc32)sc1=S (configuration not stated) | 6.92 µM |
| Clc1ccc(-c2noc3c2CN(CCn2cc(Cl)cn2)CC3)cc1 | 15.4 µM |

| Compound | EC50 |
| --- | --- |
| COc1ccc(CN2CCN(Cc3cccn3-c3ncccn3)CC2CCO)c(C)c1C (configuration not stated) | > 20 µM (inactive) |
| Cc1nn(C)c(Cl)c1/C=C1/CCCc2c1nc1ccccc1c2C(=O)O | > 20 µM (inactive) |
| CCC(C)n1cc(/C=C2/C(=O)NC(=O)N(c3ccc4c(c3)OCO4)C2=O)c2ccccc21 (configuration not stated) | > 20 µM (inactive) |
| COc1ccc(/C=C2\Oc3c(ccc4c3CN(CC3CCCO3)CO4)C2=O)cc1 (configuration not stated) | 9.33 µM |
| CN1CCN(Cc2c(O)ccc3c2O/C(=C\c2cc4cc(Br)ccc4o2)C3=O)CC1 | 12.7 µM |
| O=C1c2cccc3c(Nc4ccccc4)ccc(c23)C(=O)N1c1ccccc1 | 5.39 µM |
| O=C1/C(=C/c2cc3cc(Br)ccc3o2)Oc2c1ccc(O)c2CN1CCN(CCO)CC1 | 6.64 µM |
| Nc1c(S(=O)(=O)O)cc2c3c(cccc13)C(=O)N(CCO)C2=O | 0.154 µM |
| FC(F)(F)c1cc(-c2cccs2)nc2ncnn12 | 18.3 µM |
| CCOC(=O)C1CCCN(CC(=O)N2N=C(c3ccccc3Cl)CC2c2ccc(Cl)cc2)C1 (configuration not stated) | > 20 µM (inactive) |
| N#CC1C(=N)SC(=N)C(C#N)C1c1cccc(O)c1 (configuration not stated) | 10.1 µM |
| Cc1ccccc1CNc1ncnc2c1ncn2C1OC(CO)C(O)C1O (configuration not stated) | 6.77 µM |
| CCOc1ccc2nc3cc(N)ccc3c(N)c2c1 | 4.44 µM |
| O=C(O)c1csc(CSc2nnc(Cc3ccccc3)n2-c2cccc(C(F)(F)F)c2)n1 | > 20 µM (inactive) |
| CC(=NNc1ncnc2sc(C)c(C)c12)c1ccccn1 | inactive |
| N#CC1C(=N)Oc2cc(O)ccc2C1c1ccccc1I (configuration not stated) | 7.42 µM |
| CCN1CCN(C(=O)c2ccc(Cn3ccsc3=NC(=O)c3ccc(OC)c(OC)c3)o2)CC1 | > 20 µM (inactive) |
| COc1ccc2oc(=O)c(-c3nnc(Nc4cc(Cl)ccc4OC)s3)cc2c1 | > 20 µM (inactive) |
| CC(=O)Nc1nc(COC(=O)c2[nH]c(C)c(C(=O)OC(C)C)c2C)cs1 | > 20 µM (inactive) |
| N#Cc1c(N)nc2c(c1N)C(Sc1ccccc1)c1ccc(O)cc1O2 (configuration not stated) | < 0.039 µM |
| N#Cc1cc2cc(Cl)cc(Cl)c2oc1=O | 1.94 µM |
| C[C@H]1O[C@H](O[C@@H]2[C@@H](O[C@H]3CC[C@@]4(C)C(CC[C@]5(C)C4CC=C4[C@@H]6CC(C)(C)CC[C@]6(C(=O)O)CC[C@]45C)[C@]3(C)CO)OC[C@@H](O)[C@H]2O)[C@@H](O)[C@H](O)[C@@H]1O (some centres not stated) | 9.92 µM |
| CCNc1ccc(OC)nc1 | > 20 µM (inactive) |
| CC(C)(C)c1cnc(CSc2cnc(NC(=O)C3CCNCC3)s2)o1 | > 20 µM (inactive) |
| CCCCN(CC(=O)Nc1c(-c2ccccc2)c(C)nn1-c1ccccc1C)S(=O)(=O)c1ccc(F)cc1 | > 20 µM (inactive) |
| O=C(O)c1[nH]ncc1CN1CCc2onc(-c3ccc(C(F)(F)F)cc3)c2C1 | > 20 µM (inactive) |
